Experimental findings from patent US9073895B2 (Boehringer Ingelheim International GmbH, priority 2010, dated 2015) are described below.

Usually IC50 stands for the concentration that inhibits the measured activity by half.

Assay [1] deals with T1, recombinant human FLAP protein (Homo sapiens, UniProt P20292).
T1 construct: made in house; host or cells: Sf9 insect cells (membrane fraction, 100,000 x g pellet)
T1 sequence (P20292 1-161): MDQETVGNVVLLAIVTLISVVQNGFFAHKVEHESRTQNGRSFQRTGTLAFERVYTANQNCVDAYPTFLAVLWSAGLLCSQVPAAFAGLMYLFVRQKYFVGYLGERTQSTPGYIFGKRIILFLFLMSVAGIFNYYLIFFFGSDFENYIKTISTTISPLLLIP
In words: FLAP binding assay (SPA, displacement of [125I]L-691,831). Conditions: membranes of sf9 cells expressing human FLAP, [125I]L-691,831 probe; read-out: hFLAP binding IC50. Summed up: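 Membranes from sf9 cells expressing human FLAP (5 μg/well) were bound to WGA SPA beads (200 μg/well). Nonspecific binding was defined with 10 μM unlabelled L-691,831.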

Assay [2] has as its system synthesis of LTB4 in human whole blood. In words: Human whole blood LTB4 production inhibition assay. Conditions: heparinized human whole blood, calcimycin 20 μM, plasma LTB4; read-out: HuWB IC50. Format: cell-based. Summed up:
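Heparinized human whole blood was preincubated with compound for 15 min at 37° C, then stimulated with calcimycin (20 μM final, in PBS pH 7.4) for a further 30 min at 37° C. Plasma LTB4 was quantified by antibody-based homogeneous time-resolved fluorescence.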

The structures appear in SMILES notation.

As for `N#Cc1ccc(NC(=O)C2(c3ccc(-c4cnc(N)c(CO)c4)cc3)CCOCC2)nc1` [Example 179, 4-{4-[6-amino-5-(hydroxymethyl)pyridin-3-yl]phenyl}-N-(5-cyanopyridin-2-yl)tetrahydro-2H-pyran-4-carboxamide], the IC50 stood at 24.7 nM in assay [1] and 388 nM in assay [2].

On to `COc1cc(NC(=O)C2(c3ccc(-c4cnc(N)nc4)cc3)CCC2)ccn1` [Example 187, 1-[4-(2-aminopyrimidin-5-yl)phenyl]-N-(2-methoxypyridin-4-yl)cyclobutanecarboxamide], for which the IC50 in assay [1] came out at 5.1 nM; in assay [2] it was 517 nM.

In the case of `Cc1nc(-c2cccc(NC(=O)C3(c4ccc(-c5cnc(N)nc5)cc4)CCOCC3)c2)cs1` [Example 70, 4-[4-(2-aminopyrimidin-5-yl)phenyl]-N-[3-(2-methyl-1,3-thiazol-4-yl)phenyl]tetrahydro-2H-pyran-4-carboxamide], the concentration for half-maximal inhibition (IC50) in assay [1] was 42 nM; in assay [2], over 3000 nM.

As for `Nc1ncc(-c2ccc(C3(C(=O)Nc4ccccn4)CCC3)cc2)cn1` [Example 129, 1-[4-(2-aminopyrimidin-5-yl)phenyl]-N-(pyridin-2-yl)cyclobutanecarboxamide], the IC50 in assay [1] is 10.4 nM; in assay [2], 8620 nM.

Regarding `Cc1nc(-c2ccc(NC(=O)C3(c4ccc(-c5cnc(N)c(CO)c5)cc4)CCOCC3)nc2)cs1` [Example 176, 4-{4-[6-amino-5-(hydroxymethyl)pyridin-3-yl]phenyl}-N-[5-(2-methyl-1,3-thiazol-4-yl)pyridin-2-yl]tetrahydro-2H-pyran-4-carboxamide], the IC50 in assay [1] was 6.65 nM; in assay [2], 712 nM.

With `CN(C)S(=O)(=O)c1ccc(NC(=O)C2(c3ccc(-c4cnc(N)nc4)cc3)CCC2)cc1` [Example 87, 1-[4-(2-aminopyrimidin-5-yl)phenyl]-N-[4-(dimethylsulfamoyl)phenyl] cyclobutanecarboxamide], the IC50 was found to be 4 nM in assay [1] and 192 nM in assay [2].

In the case of `CC(C)C(C)(C(=O)Nc1ccccn1)c1ccc(-c2cnc(N)nc2)cc1` (stereo not drawn) [Example 127, 2-[4-(2-aminopyrimidin-5-yl)phenyl]-2,3-dimethyl-N-(pyridin-2-yl)butanamide], the results for the IC50 in assay [1] and in assay [2] were 9 nM and 3220 nM, respectively.

`Cc1nc(-c2ccc(NC(=O)C3(c4ccc(-c5cnc6[nH]ccc6c5)cc4)CCOCC3)nc2)cs1` [Example 151, N-[5-(2-methyl-1,3-thiazol-4-yl)pyridin-2-yl]-4-[4-(1H-pyrrolo[2,3-b]pyridin-5-yl)phenyl]tetrahydro-2H-pyran-4-carboxamide]: the IC50 came out at 2.1 nM in assay [1] and 200 nM in assay [2].

For `Nc1ncc(-c2ccc(C3(C(=O)Nc4cc(C(F)(F)F)ccc4N4CCOCC4)CCOCC3)cc2)cn1` [Example 81, 4-[4-(2-aminopyrimidin-5-yl)phenyl]-N-[2-(morpholin-4-yl)-5-(trifluoromethyl)phenyl] tetrahydro-2H-pyran-4-carboxamide], the IC50 in assay [1] is 54 nM; in assay [2] it was over 3000 nM.

With `Nc1ncc(-c2ccc(C3(C(=O)Nc4ccc(-c5ccccc5)nc4)CCOCC3)cc2)cn1` [Example 67, 4-[4-(2-aminopyrimidin-5-yl)phenyl]-N-(6-phenylpyridin-3-yl)tetrahydro-2H-pyran-4-carboxamide], the 50% inhibitory concentration (IC50) in assay [1] stood at 14.5 nM; in assay [2], 1210 nM.

Turning to `CS(=O)(=O)c1ccc(NC(=O)C2(c3ccc(-c4cnc(N)nc4)cc3)CCC2)cn1` [Example 89, 1-[4-(2-aminopyrimidin-5-yl)phenyl]-N-[6-(methylsulfonyl)pyridin-3-yl]cyclobutanecarboxamide], the IC50 in assay [1] worked out at 8.13 nM; in assay [2], 202 nM.

Take `Cn1ccc(NC(=O)C2(c3ccc(-c4cnc(N)nc4)cc3)CCC2)n1` [Example 222, 1-[4-(2-aminopyrimidin-5-yl)phenyl]-N-(1-methyl-1H-pyrazol-3-yl)cyclobutanecarboxamide]: the IC50 in assay [1] was 43.5 nM; in assay [2], 1230 nM.
